Reference: patent publication US11498899B2, “Nitrone herbicides” (FMC Corporation, priority 2016, dated 2022)

What was measured:
[1] = system: barnyardgrass (Echinochloa crus-galli); assay: Test B flooded paddy test, visual rating 0-100; details: Flood, 250 g ai/ha, applied to paddy water, rated after 13 to 15 days
kochia (Kochia scoparia) [2] = assay: Test A preemergence, visual injury rating 0-100; format: in vivo; details: for Kochia plant response rating: 0 to 100 scale
[3] = system: ragweed (common ragweed, Ambrosia elatior); assay: Test A preemergence, visual injury rating 0-100; format: in vivo; details: for Ragweed plant response rating: 0 to 100 scale
[4] = system: ryegrass, Italian (Italian ryegrass, Lolium multiflorum); assay: Test A preemergence, visual injury rating 0-100; format: in vivo; details: for Ryegrass, Italian plant response rating: 0 to 100 scale
[5] = system: pigweed (Amaranthus retroflexus); assay: Test A preemergence, visual injury rating 0-100; format: in vivo; details: for Pigweed plant response rating: 0 to 100 scale
[6] = system: foxtail, green (green foxtail, Setaria viridis); assay: Test A preemergence, visual injury rating 0-100; format: in vivo; details: for Foxtail, Green plant response rating: 0 to 100 scale
[7] = system: barnyardgrass (Echinochloa crus-galli); assay: Test A preemergence, visual injury rating 0-100 (0 no effect, 100 complete control); format: in vivo; details: for Barnyardgrass plant response rating (0 to 100 scale): 125 g ai/ha; for Barnyardgrass plant response rating: 500 g ai/ha, 0 to 100 scale
corn (Zea mays) = assay: Test A postemergence, visual injury rating 0-100; format: in vivo; details: 0 to 100 scale
kochia (Kochia scoparia) [8] = assay: Test A postemergence, visual injury rating 0-100; format: in vivo; details: 0 to 100 scale
[9] = system: ragweed (common ragweed, Ambrosia elatior); assay: Test A postemergence, visual injury rating 0-100; format: in vivo; details: 0 to 100 scale
[10] = system: wheat (Triticum aestivum); assay: Test A postemergence, visual injury rating 0-100; format: in vivo; details: 0 to 100 scale
[11] = system: ryegrass, Italian (Italian ryegrass, Lolium multiflorum); assay: Test A postemergence, visual injury rating 0-100; format: in vivo; details: 0 to 100 scale
[12] = system: blackgrass (Alopecurus myosuroides); assay: Test A postemergence, visual injury rating 0-100; format: in vivo; details: 0 to 100 scale
[13] = system: galium (catchweed bedstraw, Galium aparine); assay: Test A postemergence, visual injury rating 0-100; format: in vivo; details: 0 to 100 scale
[14] = system: pigweed (Amaranthus retroflexus); assay: Test A postemergence, visual injury rating 0-100; format: in vivo; details: 0 to 100 scale
[15] = system: foxtail, green (green foxtail, Setaria viridis); assay: Test A postemergence, visual injury rating 0-100; format: in vivo; details: 0 to 100 scale
[16] = system: barnyardgrass (Echinochloa crus-galli); assay: Test A postemergence, visual injury rating 0-100; format: in vivo; details: 0 to 100 scale
rice (Oryza sativa) = assay: Test B flooded paddy test, visual rating 0-100 (0 no effect, 100 complete control); details: Flood, 250 g ai/ha, applied to paddy water, rated after 13 to 15 days
[17] = system: ducksalad (Heteranthera limosa); assay: Test B flooded paddy test, visual rating 0-100; details: Flood, 250 g ai/ha, applied to paddy water, rated after 13 to 15 days

Row | Compound | Barnyardgrass plant response rating (0 to 100 scale) [1] | Kochia plant response rating (0 to 100 scale) (kochia (Kochia scoparia) [2]; 125 g ai/ha) | Ragweed plant response rating (0 to 100 scale) ([3]; 125 g ai/ha) | Ryegrass, Italian plant response rating (0 to 100 scale) ([4]; 125 g ai/ha) | Pigweed plant response rating (0 to 100 scale) ([5]; 125 g ai/ha) | Foxtail, Green plant response rating (0 to 100 scale) ([6]; 125 g ai/ha) | Barnyardgrass plant response rating (0 to 100 scale) [7] | Barnyardgrass plant response rating [7] | Corn plant response rating (corn (Zea mays); 125 g ai/ha) | Corn plant response rating (corn (Zea mays); 500 g ai/ha) | Kochia plant response rating (kochia (Kochia scoparia) [8]; 125 g ai/ha) | Kochia plant response rating (kochia (Kochia scoparia) [8]; 500 g ai/ha) | Ragweed plant response rating ([9]; 125 g ai/ha) | Ragweed plant response rating ([9]; 500 g ai/ha) | Wheat plant response rating ([10]; 125 g ai/ha) | Wheat plant response rating ([10]; 500 g ai/ha) | Ryegrass, Italian plant response rating ([11]; 125 g ai/ha) | Ryegrass, Italian plant response rating ([11]; 500 g ai/ha) | Blackgrass plant response rating ([12]; 125 g ai/ha) | Blackgrass plant response rating ([12]; 500 g ai/ha) | other results
1 | CC1=[N+]([O-])C(C(=O)Nc2cccc(F)c2F)C(c2ccccc2)C1 (racemic) [Compound 16] | 85 | 0 | 0 | 0 | 0 | 100 | 100 | 100 | 0 | 0 | 0 | 20 | 0 | 20 | 0 | 0 | 0 | 0 | 0 | 0 | Kochia plant response rating (kochia (Kochia scoparia) [2]; 500 g ai/ha): 30; Ragweed plant response rating ([3]; 500 g ai/ha): 20; Ryegrass, Italian plant response rating ([4]; 500 g ai/ha): 0; Pigweed plant response rating ([5]; 500 g ai/ha): 70; Foxtail, Green plant response rating ([6]; 500 g ai/ha): 100; Galium plant response rating ([13]; 125 g ai/ha): 0; Galium plant response rating ([13]; 500 g ai/ha): 30; Pigweed plant response rating ([14]; 125 g ai/ha): 0; Pigweed plant response rating ([14]; 500 g ai/ha): 20; Foxtail, Green plant response rating ([15]; 125 g ai/ha): 10; Foxtail, Green plant response rating ([15]; 500 g ai/ha): 80; Barnyardgrass plant response rating ([16]; 125 g ai/ha): 80; Barnyardgrass plant response rating ([16]; 500 g ai/ha): 90; Rice plant response rating (0 to 100 scale) (rice (Oryza sativa)): 0; Ducksalad plant response rating (0 to 100 scale) [17]: 100
2 | CC1=[N+]([O-])C(C(=O)Nc2ccccc2)C(c2ccc(F)c(F)c2)C1 (racemic) [Compound 17] | 0 | 0 | 0 | 0 | 0 | 0 | 0 | 20 | 0 | 20 | 0 | 0 | 0 | 0 | 0 | 0 | 0 | 0 | 0 | 0 | Kochia plant response rating (kochia (Kochia scoparia) [2]; 500 g ai/ha): 0; Ragweed plant response rating ([3]; 500 g ai/ha): 0; Ryegrass, Italian plant response rating ([4]; 500 g ai/ha): 0; Pigweed plant response rating ([5]; 500 g ai/ha): 0; Foxtail, Green plant response rating ([6]; 500 g ai/ha): 50; Galium plant response rating ([13]; 125 g ai/ha): 0; Galium plant response rating ([13]; 500 g ai/ha): 0; Pigweed plant response rating ([14]; 125 g ai/ha): 0; Pigweed plant response rating ([14]; 500 g ai/ha): 0; Foxtail, Green plant response rating ([15]; 125 g ai/ha): 20; Foxtail, Green plant response rating ([15]; 500 g ai/ha): 20; Barnyardgrass plant response rating ([16]; 125 g ai/ha): 0; Barnyardgrass plant response rating ([16]; 500 g ai/ha): 0; Rice plant response rating (0 to 100 scale) (rice (Oryza sativa)): 0; Ducksalad plant response rating (0 to 100 scale) [17]: 40
3 | CC1=[N+]([O-])C(C(=O)Nc2ccc(F)cc2F)C(c2ccc(C(F)(F)F)cc2)C1 (racemic) [Compound 46] | 40 | 0 | 0 | 0 | 50 | 90 | 70 | 100 | 0 | 40 | 0 | 40 | 0 | 30 | 0 | 20 | 0 | 40 | 20 | 70 | Kochia plant response rating (0 to 100 scale) (kochia (Kochia scoparia) [2]; 500 g ai/ha): 90; Ragweed plant response rating (0 to 100 scale) ([3]; 500 g ai/ha): 90; Ryegrass, Italian plant response rating (0 to 100 scale) ([4]; 500 g ai/ha): 0; Pigweed plant response rating (0 to 100 scale) ([5]; 500 g ai/ha): 90; Foxtail, Green plant response rating (0 to 100 scale) ([6]; 500 g ai/ha): 100; Pigweed plant response rating ([14]; 125 g ai/ha): 0; Pigweed plant response rating ([14]; 500 g ai/ha): 30; Foxtail, Green plant response rating ([15]; 125 g ai/ha): 40; Foxtail, Green plant response rating ([15]; 500 g ai/ha): 90; Barnyardgrass plant response rating ([16]; 125 g ai/ha): 10; Barnyardgrass plant response rating ([16]; 500 g ai/ha): 90; Rice plant response rating (0 to 100 scale) (rice (Oryza sativa)): 20; Ducksalad plant response rating (0 to 100 scale) [17]: 100
4 | CC1=[N+]([O-])[C@H](C(=O)Nc2cccc(F)c2F)[C@@H](c2ccc3c(c2)OC(F)(F)O3)C1 (relative stereo) [Compound 25, rel-(2S,3R)-3-(2,2-Difluoro-1,3-benzodioxol-5-yl)-N-(2,3-difluorophenyl)-3,4-dihydro-5-methyl-2H-pyrrole-2-carboxamide 1-oxide] | 75 | 50 | 50 | 80 | 80 | 90 | 90 | 90 | 60 | 80 | 60 | 60 | 40 | 50 | 70 | 90 | 40 | 50 | 20 | 40 | Kochia plant response rating (kochia (Kochia scoparia) [2]; 500 g ai/ha): 80; Ragweed plant response rating ([3]; 500 g ai/ha): 100; Ryegrass, Italian plant response rating ([4]; 500 g ai/ha): 50; Pigweed plant response rating ([5]; 500 g ai/ha): 90; Foxtail, Green plant response rating ([6]; 500 g ai/ha): 90; Pigweed plant response rating ([14]; 125 g ai/ha): 60; Pigweed plant response rating ([14]; 500 g ai/ha): 70; Foxtail, Green plant response rating ([15]; 125 g ai/ha): 40; Foxtail, Green plant response rating ([15]; 500 g ai/ha): 90; Barnyardgrass plant response rating ([16]; 125 g ai/ha): 70; Barnyardgrass plant response rating ([16]; 500 g ai/ha): 90; Rice plant response rating (0 to 100 scale) (rice (Oryza sativa)): 0; Ducksalad plant response rating (0 to 100 scale) [17]: 90
5 | CC1=[N+]([O-])[C@H](C(=O)Nc2ccc(F)nc2F)[C@@H](c2ccc(C(F)(F)F)cc2)C1 (relative stereo) [Compound 37, rel-(2S,3R)—N-(2,6-Difluoro-3-pyridinyl)-3,4-dihydro-5-methyl-3-[4-(trifluoromethyl)phenyl]-2H-pyrrole-2-carboxamide 1-oxide] | 45 | 70 | 90 | 0 | 80 | 90 | 90 | 100 | 20 | 50 | 10 | 70 | 0 | 60 | 10 | 60 | 0 | 40 | 20 | 90 | Kochia plant response rating (0 to 100 scale) (kochia (Kochia scoparia) [2]; 500 g ai/ha): 90; Ragweed plant response rating (0 to 100 scale) ([3]; 500 g ai/ha): 100; Ryegrass, Italian plant response rating (0 to 100 scale) ([4]; 500 g ai/ha): 0; Pigweed plant response rating (0 to 100 scale) ([5]; 500 g ai/ha): 100; Foxtail, Green plant response rating (0 to 100 scale) ([6]; 500 g ai/ha): 100; Pigweed plant response rating ([14]; 125 g ai/ha): 0; Pigweed plant response rating ([14]; 500 g ai/ha): 70; Foxtail, Green plant response rating ([15]; 125 g ai/ha): 60; Foxtail, Green plant response rating ([15]; 500 g ai/ha): 90; Barnyardgrass plant response rating ([16]; 125 g ai/ha): 40; Barnyardgrass plant response rating ([16]; 500 g ai/ha): 70; Rice plant response rating (0 to 100 scale) (rice (Oryza sativa)): 0; Ducksalad plant response rating (0 to 100 scale) [17]: 100
